Data set [1] has as its system Staphylococcus aureus. In words: Antibacterial activity against Staphylococcus aureus ATCC 25923 assessed as fold increase in MIC pretreated with Zncl2 followed by compound addition and measured after 2 hrs by broth microdilution method. The data set is classed as functional.
The next data set relates to Acinetobacter baumannii. In words: Antibacterial activity against Acinetobacter baumannii ATCC 19606 incubated for 18 to 24 hrs by broth microdilution method. Conditions: time 18-24 hrs. The data set is classed as functional.
Data set [2] deals with Staphylococcus aureus. In words: Antibacterial activity against Staphylococcus aureus ATCC 25923 assessed as fold increase in MIC pretreated with Na-cl followed by compound addition and measured after 2 hrs by broth microdilution method. The format is functional.
For a further data set, the system named is Enterococcus faecalis. In words: Antibacterial activity against Enterococcus faecalis ATCC 29212 incubated for 18 to 24 hrs by broth microdilution method. The format is functional. Conditions: time 18-24 hrs.
In the next data set the test system is Bacillus subtilis. Put plainly: Antibacterial activity against Bacillus subtilis ATCC 23857 incubated for 18 to 24 hrs by broth microdilution method. As to conditions: time 18-24 hrs. The data set is classed as functional.
Another data set has as its system Erythrocyte. Put plainly: Hemolytic activity in mouse red blood cell assessed as hemolysis incubated for 1 hr. The data set is classed as toxicity, cell-based.
Data set [3] has as its system Staphylococcus aureus. In words: Antibacterial activity against Staphylococcus aureus ATCC 25923 incubated for 18 to 24 hrs by broth microdilution method. Conditions: time 18-24 hrs. The format is functional. On the technique in general: Broth dilution looks for growth in wells or tubes with falling amounts of substance.
For data set [4], the system named is Staphylococcus epidermidis. Put plainly: Antibacterial activity against Staphylococcus epidermidis ATCC 12228 incubated for 18 to 24 hrs by broth microdilution method. The format is functional. As to conditions: time 18-24 hrs.
The next data set relates to Klebsiella pneumoniae. Put plainly: Antibacterial activity against Klebsiella pneumoniae ATCC 700603 incubated for 18 to 24 hrs by broth microdilution method. The format is functional. As to conditions: time 18-24 hrs.
A further data set relates to Pseudomonas aeruginosa. Put plainly: Antibacterial activity against Pseudomonas aeruginosa ATCC 27853 incubated for 18 to 24 hrs by broth microdilution method. The data set is classed as functional. As to conditions: time 18-24 hrs.
A further data set has as its system Escherichia coli. Put plainly: Antibacterial activity against Escherichia coli ATCC 25922 incubated for 18 to 24 hrs by broth microdilution method. The data set is classed as functional. As to conditions: time 18-24 hrs.
Data set [5] can be described thus: Toxicity in male BALB/c mouse assessed as survival rate at 15 mg/kg, ip measured after 7 days relative to control. The format is organism-based. As to conditions: in vivo, 168 h, time 7 day.
Data set [6] in a line: Toxicity in male BALB/c mouse assessed as lethal dose administered as ip measured after 7 days. The data set is classed as organism-based. Conditions: in vivo, ip, 168 h, time 7 day.
Data set [7] in a line: Toxicity in male BALB/c mouse assessed as massive edema in kidney at 19.45 mg/kg, ip administered as single dose by H and E staining based analysis. The data set is classed as organism-based. Conditions: in vivo.
A short description of data set [8]: Toxicity in male BALB/c mouse assessed as cellular infiltration in liver at 19.45 mg/kg, ip administered as single dose by H and E staining based analysis. The data set is classed as organism-based. As to conditions: in vivo.
Data set [9] can be described thus: Toxicity in male BALB/c mouse assessed as cellular infiltration in spleen at 19.45 mg/kg, ip administered as single dose by H and E staining based analysis. The data set is classed as organism-based. Conditions: in vivo.
Data set [10] in a line: Toxicity in male BALB/c mouse assessed as cellular infiltration in kidney at 19.45 mg/kg, ip administered as single dose by H and E staining based analysis. The format is organism-based. As to conditions: in vivo.
Data set [11] in a line: Toxicity in male BALB/c mouse assessed as survival rate at 23.8 to 30 mg/kg, ip measured within 30 mins relative to control. The format is organism-based. As to conditions: in vivo, 0.5 h, dose 23.8-30 mg/kg.
Data set [12] can be described thus: Toxicity in male BALB/c mouse assessed as cellular infiltration in lung at 19.45 mg/kg, ip administered as single dose by H and E staining based analysis. The format is organism-based. As to conditions: in vivo.
Data set [13] in a line: Toxicity in male BALB/c mouse assessed as hemorrhage in spleen at 19.45 mg/kg, ip administered as single dose by H and E staining based analysis. The data set is classed as organism-based. Conditions: in vivo.
Data set [14] in a line: Toxicity in male BALB/c mouse assessed as hemorrhage in liver at 19.45 mg/kg, ip administered as single dose by H and E staining based analysis. The format is organism-based. As to conditions: in vivo.
Data set [15] is described as follows: Toxicity in male BALB/c mouse assessed as cell necrosis in liver at 19.45 mg/kg, ip administered as single dose by H and E staining based analysis. As to conditions: in vivo. The data set is classed as organism-based.
A short description of data set [16]: Toxicity in male BALB/c mouse assessed as hemorrhage in kidney at 19.45 mg/kg, ip administered as single dose by H and E staining based analysis. The format is organism-based. As to conditions: in vivo.
A short description of data set [17]: Toxicity in male BALB/c mouse assessed as alveolar shrinkage in lung at 19.45 mg/kg, ip administered as single dose by H and E staining based analysis. The format is organism-based. Conditions: in vivo.
The nature of data set [18]: Toxicity in male BALB/c mouse assessed as hemorrhage in lung at 19.45 mg/kg, ip administered as single dose by H and E staining based analysis. The format is organism-based. As to conditions: in vivo.

With `CCC(C)CCC(=O)N[C@H](CC(N)=O)C(=O)N[C@H](Cc1c[nH]c2ccccc12)C(=O)N[C@H](Cc1c[nH]c2ccccc12)C(=O)N[C@H](CCCN)C(=O)N[C@@H](CCCN)C(=O)NCC(=O)N[C@H](CCCN)C(=O)N[C@@H](Cc1c[nH]c2ccccc12)C(=O)N[C@@H]1C(=O)N[C@@H]([C@@H](C)CC)C(=O)NCC(=O)N[C@@H](CO)C(=O)O[C@@H]1C` (mixture of isomers), the “fold change (FC)” value in the data set on Staphylococcus aureus [1] and in the data set with Staphylococcus aureus [2] was 4 each time. Further, the minimal inhibitory concentration (MIC) (commonly the least concentration at which growth counts as inhibited) in the data set on Acinetobacter baumannii came to 32 µM; in the data set with Enterococcus faecalis, 128 µM; with Bacillus subtilis it was 16 µM; with Staphylococcus aureus [3], 32 µM; in [4] it was 32 µM; against Klebsiella pneumoniae, 8 µM. The MIC in the data set with Pseudomonas aeruginosa turned out to be 4 µM; against Escherichia coli, 8 µM. For the same compound, the MHC with Erythrocyte was 64 µM.
Take POLYMYXIN B: the Survival came to 100% in data set [5] and 0% in [11]. Besides, in data set [6], the LD50 – broadly, the dose at which mortality reaches 50% – was found to be 19.45 mg/kg. Besides, the Activity entry in [7], in [8], in data set [9], in data set [10], in data set [12] and in data set [13] was “Toxic” in each case. The Activity result in data set [14], in [15], in [16], in [17] and in data set [18] was “Toxic” throughout. Besides, in the data set with Erythrocyte, the MHC came out at 128 µM.

(Values after ChEMBL document CHEMBL5512645, “A novel antimicrobial peptide with broad-spectrum and exceptional stability derived from the natural peptide Brevicidine” (Eur J Med Chem, 2024).)
